According to ChEMBL document CHEMBL1201862, “PubChem BioAssay data set” (2004):
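Each compound was tested at five concentrations against cells in 96-well plates for 48 hours. Abbreviation: GI50, concentration required for 50% inhibition of growth.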 Calls of active or inactive are those of the source. Cut-off read from the data, not from the text of the source: active = GI50 up to about 1.1 µM and inactive = higher.

How the values were obtained:
Test in all cases: NCI tumour cell line growth inhibition, 48 h
[1] = system: SK-MEL-28
[2] = system: SK-MEL-2
[3] = system: RPMI-8226
[4] = system: OVCAR-8
[5] = system: SR
[6] = system: SNB-78
[7] = system: COLO 205
[8] = system: HOP-18
[9] = system: MOLT-4
[10] = system: U-251
[11] = system: XF498
[12] = system: M14
[13] = system: Malme-3M
[14] = system: IGROV-1
[15] = system: SK-OV-3
[16] = system: KM12
[17] = system: SNB-19
[18] = system: M19-MEL
[19] = system: CAKI-1
[20] = system: SF-539
[21] = system: HT-29
[22] = system: K562
[23] = system: TK-10
[24] = system: UACC-62
[25] = system: 786-0
[26] = system: HOP-62
[27] = system: OVCAR-3
[28] = system: UO-31
[29] = system: SF-268
[30] = system: NCI-H23
[31] = system: A549
[32] = system: OVCAR-5
[33] = system: HCT-116
[34] = system: KM-20L2
[35] = system: OVCAR-4
[36] = system: HCC 2998
[37] = system: DMS-114
[38] = system: SF-295
[39] = system: RXF 393
[40] = system: EKVX
[41] = system: HCT-15
[42] = system: SNB-75
[43] = system: CCRF-CEM
[44] = system: UACC-257
[45] = system: NCI-H522
[46] = system: DMS-273
[47] = system: LXFL 529
[48] = system: NCI-H226
[49] = system: SK-MEL-5
[50] = system: HOP-92
[51] = system: ACHN
[52] = system: SN12C
[53] = system: A498
[54] = system: LOX IMVI
[55] = system: HL-60
[56] = system: NCI-H460
[57] = system: SW-620
[58] = system: DLD-1

For `C/C(=N\NC(N)=S)c1ccc(C2CCCCC2)cc1`, the GI50 [1] was 16.6 µM (inactive), the GI50 [2] was 13.5 µM (inactive) and the GI50 [3] was 22.2 µM (inactive). For the same compound, the GI50 [4] was 15 µM (inactive), the GI50 [5] was 21.4 µM (inactive) and the GI50 [6] was 25.9 µM (inactive). For the same compound, the GI50 [7] was 12 µM (inactive), the GI50 [8] was 32.1 µM (inactive) and the GI50 [9] was 4.58 µM (inactive). For the same compound, the GI50 [10] was 19 µM (inactive), the GI50 [11] was 0.113 µM (active) and the GI50 [12] was 9.59 µM (inactive). For the same compound, the GI50 [13] was 18.5 µM (inactive), the GI50 [14] was 12 µM (inactive) and the GI50 [15] was 32 µM (inactive). For the same compound, the GI50 [16] was 15.9 µM (inactive), the GI50 [17] was 40.5 µM (inactive) and the GI50 [18] was 27.5 µM (inactive). For the same compound, the GI50 [19] was 25.6 µM (inactive), the GI50 [20] was 19.8 µM (inactive) and the GI50 [21] was 10.5 µM (inactive). For the same compound, the GI50 [22] was 12.2 µM (inactive), the GI50 [23] was 26 µM (inactive) and the GI50 [24] was 14.2 µM (inactive). For the same compound, the GI50 [25] was 13.6 µM (inactive), the GI50 [26] was 37.2 µM (inactive) and the GI50 [27] was 14.6 µM (inactive). The GI50 [28] was 13 µM (inactive), the GI50 [29] was > 100 µM (inactive) and the GI50 [30] was 16.9 µM (inactive). For the same compound, the GI50 [31] was 43.4 µM (inactive), the GI50 [32] was 11.1 µM (inactive) and the GI50 [33] was 14.4 µM (inactive). The GI50 [34] was 14.7 µM (inactive), the GI50 [35] was 14.4 µM (inactive) and the GI50 [36] was 16.4 µM (inactive). For the same compound, the GI50 [37] was 7.03 µM (inactive), the GI50 [38] was 4.56 µM (inactive) and the GI50 [39] was 12.6 µM (inactive). For the same compound, the GI50 [40] was 71.4 µM (inactive).
`CC(C)N(C(=O)C12C3C4C5C3C1(C(=O)N(C(C)C)C(C)C)C5C42)C(C)C` (stereo not drawn) was tested, and the GI50 [1] was > 100 µM (inactive), the GI50 [41] was greater than 71.8 µM and the GI50 [42] was > 100 µM (inactive). For the same compound, the GI50 [2] was > 100 µM (inactive), the GI50 [3] was > 44.7 µM (inactive) and the GI50 [4] was > 60.5 µM (inactive). The GI50 [5] was 19.1 µM (inactive), the GI50 [6] was > 100 µM (inactive) and the GI50 [7] was > 44.5 µM (inactive). The GI50 [8] was > 100 µM (inactive), the GI50 [43] was > 47.1 µM (inactive) and the GI50 [9] was 68.9 µM (inactive). The GI50 [44] was > 100 µM (inactive), the GI50 [10] was > 100 µM (inactive) and the GI50 [45] was > 100 µM (inactive). For the same compound, the GI50 [11] was > 100 µM (inactive), the GI50 [12] was > 100 µM (inactive) and the GI50 [13] was > 100 µM (inactive). For the same compound, the GI50 [14] was > 100 µM (inactive), the GI50 [15] was > 100 µM (inactive) and the GI50 [16] was > 100 µM (inactive). The GI50 [17] was > 100 µM (inactive), the GI50 [18] was > 100 µM (inactive) and the GI50 [19] was > 100 µM (inactive). The GI50 [20] was > 100 µM (inactive), the GI50 [21] was > 100 µM (inactive) and the GI50 [22] was > 39.2 µM (inactive). The GI50 [46] was > 41.7 µM (inactive), the GI50 [23] was > 100 µM (inactive) and the GI50 [24] was > 100 µM (inactive). The GI50 [25] was > 100 µM (inactive), the GI50 [26] was > 100 µM (inactive) and the GI50 [27] was > 100 µM (inactive). The GI50 [47] was > 80.4 µM (inactive), the GI50 [48] was > 100 µM (inactive) and the GI50 [28] was > 100 µM (inactive). For the same compound, the GI50 [29] was > 100 µM (inactive), the GI50 [49] was > 100 µM (inactive) and the GI50 [30] was > 100 µM (inactive). The GI50 [50] was > 100 µM (inactive), the GI50 [31] was > 58.9 µM (inactive) and the GI50 [32] was > 100 µM (inactive). The GI50 [33] was > 43.6 µM (inactive), the GI50 [51] was > 100 µM (inactive) and the GI50 [34] was > 100 µM (inactive). The GI50 [52] was > 100 µM (inactive), the GI50 [53] was > 100 µM (inactive) and the GI50 [54] was > 46.8 µM (inactive). For the same compound, the GI50 [35] was > 100 µM (inactive), the GI50 [36] was > 100 µM (inactive) and the GI50 [37] was > 44.5 µM (inactive). The GI50 [55] was > 37.6 µM (inactive), the GI50 [56] was > 56.8 µM (inactive) and the GI50 [38] was > 100 µM (inactive). The GI50 [39] was > 100 µM (inactive), the GI50 [40] was > 100 µM (inactive) and the GI50 [57] was > 52.4 µM (inactive). For the same compound, the GI50 [58] was > 45.3 µM (inactive).
In the case of `C=CCN1COc2c(cc3c4c(cccc24)C(=O)O3)C1`, the GI50 [1] was 24.6 µM (inactive), the GI50 [41] was 29.2 µM and the GI50 [42] was 23.8 µM (inactive). For the same compound, the GI50 [2] was > 100 µM (inactive), the GI50 [3] was 33.6 µM (inactive) and the GI50 [4] was > 100 µM (inactive). The GI50 [7] was 17.9 µM (inactive), the GI50 [8] was > 100 µM (inactive) and the GI50 [43] was 19.6 µM (inactive). The GI50 [9] was 27 µM (inactive), the GI50 [44] was 26.4 µM (inactive) and the GI50 [10] was > 100 µM (inactive). For the same compound, the GI50 [45] was 14.1 µM (inactive), the GI50 [11] was 20.2 µM (inactive) and the GI50 [12] was 22.9 µM (inactive). For the same compound, the GI50 [13] was > 10 µM (inactive), the GI50 [14] was > 100 µM (inactive) and the GI50 [15] was > 100 µM (inactive). For the same compound, the GI50 [16] was 75.3 µM (inactive), the GI50 [17] was > 100 µM (inactive) and the GI50 [18] was 18.7 µM (inactive). The GI50 [19] was 27.5 µM (inactive), the GI50 [21] was 23.8 µM (inactive) and the GI50 [22] was 15.5 µM (inactive). For the same compound, the GI50 [46] was 38.6 µM (inactive), the GI50 [23] was 21.7 µM (inactive) and the GI50 [24] was 19.2 µM (inactive). For the same compound, the GI50 [25] was 20.5 µM (inactive), the GI50 [26] was > 100 µM (inactive) and the GI50 [27] was 25.2 µM (inactive). The GI50 [47] was 18.2 µM (inactive), the GI50 [48] was > 100 µM (inactive) and the GI50 [28] was 23.1 µM (inactive). For the same compound, the GI50 [29] was 48.6 µM (inactive), the GI50 [49] was 44.1 µM (inactive) and the GI50 [30] was 21.4 µM (inactive). The GI50 [50] was 16.2 µM (inactive), the GI50 [31] was > 100 µM (inactive) and the GI50 [32] was 36.6 µM (inactive). For the same compound, the GI50 [33] was 20.1 µM (inactive), the GI50 [51] was > 10 µM (inactive) and the GI50 [34] was 24.3 µM (inactive). The GI50 [52] was 21 µM (inactive), the GI50 [53] was 21.5 µM (inactive) and the GI50 [54] was > 10 µM (inactive). For the same compound, the GI50 [35] was 68.1 µM (inactive), the GI50 [36] was > 100 µM (inactive) and the GI50 [37] was 17.9 µM (inactive). The GI50 [55] was 21.4 µM (inactive), the GI50 [56] was 43.6 µM (inactive) and the GI50 [38] was 35.1 µM (inactive). The GI50 [39] was > 10 µM (inactive), the GI50 [40] was 35.7 µM (inactive) and the GI50 [57] was 25.4 µM (inactive). The GI50 [58] was 25.4 µM (inactive).
